Like-named read-outs stand apart in the source and are kept apart here.
How the values were obtained:
Assay in all cases: microbe, parasite or virus in culture
Type in all cases: cell-based, Hepatitis C virus (HCV)
HCV replicon 1AY93H = details: Replicon Assay A
How it was run: (§1)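 Replicon cells were seeded at 2000 cells/well with test compound in 0.5% DMSO and 5% FBS, then harvested on day 3. Replicon RNA was measured by multiplex TaqMan real-time RT-PCR, using cyclophilin RNA as the endogenous control and quantified against standard curves of HCV replicon total RNA.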

HCV replicon 1A = details: Replicon Assay A
How it was run: as §1

HCV replicon 2B = details: Replicon Assay A
How it was run: as §1

HCV replicon 1AQ30D = details: Replicon Assay B
HCV replicon 1B = details: Replicon Assay B
[1] = Hepatitis C virus, HCV replicon 1A
[2] = Hepatitis C virus, read-out: 1A Q30D IC50, HCV replicon 1A Q30D
[3] = Hepatitis C virus, HCV replicon 1B
[4] = read-out: 1A Y93H IC50, replicon 1AY93H
[5] = Hepatitis C virus, read-out: 1A Q30D IC50 (nM), replicon 1AQ30D
[6] = Hepatitis C virus, read-out: 1A Y93H IC50 (nM), replicon 1AY93H
[7] = Hepatitis C virus, read-out: 2B IC50 (nM), replicon 2B
[8] = read-out: 1A Y93H IC50, HCV replicon 1A Y93H
[9] = read-out: 2B IC50, HCV replicon 2B

| SMILES | IC50 (HCV replicon 1AY93H; [4]) | IC50 (HCV replicon 1A; replicon 1A) | IC50 (HCV replicon 2B; read-out: 2B IC50, replicon 2B) | IC50 (HCV replicon 1AQ30D; [5]) | IC50 (HCV replicon 1B; Hepatitis C virus, replicon 1B) | IC50 (HCV replicon 1A; Hepatitis C virus, replicon 1A) | further results |
| --- | --- | --- | --- | --- | --- | --- | --- |
| COC(=O)N[C@H](C(=O)N1CCC[C@H]1c1ncc(-c2cc(F)c3c(c2)OC(c2ccc(C4CC4)s2)n2c-3cc3cc(-c4cnc([C@@H]5CCCN5C(=O)[C@@H](NC(=O)OC)C5CC6(COC6)C5)[nH]4)ccc32)[nH]1)C(C)C (mixture of isomers) [Compound 531] | – | – | – | – | – | – | IC50 (HCV replicon 1AY93H; Hepatitis C virus, read-out: 1A Y93H IC50, HCV replicon 1A Y93H): 0.912 nM; IC50 (HCV replicon 1A; [1]): 0.00909 nM; IC50 (HCV replicon 2B; Hepatitis C virus, read-out: 2B IC50, HCV replicon 2B): 4.32 nM; IC50 (HCV replicon 1AQ30D; [2]): 3.98 nM; IC50 (HCV replicon 1B; [3]): 1.3 nM |
| COC(=O)NC(C(=O)N1CCC[C@H]1c1ncc(-c2ccc3c(c2)cc2n3C(c3ccc(C4CC4)s3)Oc3cc(-c4cnc([C@@H]5CCCN5C(=O)[C@@H](NC(=O)OC)C(C)C)[nH]4)cc(F)c3-2)[nH]1)C(C)(C)F (single isomer, unassigned) [Compound 75] | 0.021 nM | 0.003 nM | 0.041 nM | 0.27 nM | 0.0031 nM | – | – |
| COC(=O)N[C@@H](Cc1ccccc1)C(=O)N1CCC[C@H]1c1ncc(-c2ccc3c(c2)OC(c2ccc(-c4ccc(NC(=O)CCCC[C@@H]5SC[C@@H]6NC(=O)N[C@@H]65)cc4)s2)n2c-3cc3cc(-c4cnc([C@@H]5CCCN5C(=O)[C@H](Cc5ccccc5)NC(=O)OC)[nH]4)ccc32)[nH]1 (single isomer, unassigned) [Compound 384] | 0.923 nM | 0.0156 nM | 3.75 nM | 16.7 nM | 0.0095 nM | – | – |
| COC(=O)NC(C(=O)N1CCC[C@H]1c1ncc(-c2ccc3c(c2)cc2n3C(c3cc(C)c(C)s3)Oc3cc(-c4cnc([C@@H]5CCCN5C(=O)[C@@H](NC(=O)OC)C5CCOCC5)[nH]4)cc(F)c3-2)[nH]1)C(C)(C)F (some centres unmarked) [Compound 128] | – | – | – | 0.044 nM | 0.0036 nM | 0.003 nM | IC50 (HCV replicon 1AY93H; [6]): 0.03 nM; IC50 (HCV replicon 2B; [7]): 0.045 nM |
| COC(=O)N[C@H](C(=O)N1CCC[C@H]1c1ncc(-c2cc(F)c3c(c2)OC(c2ccc(C(F)(F)F)s2)n2c-3cc3cc(-c4cnc([C@@H]5CCCN5C(=O)[C@@H](NC(=O)OC)C5CCOCC5)[nH]4)ccc32)[nH]1)C(C)C (single isomer, unassigned) [Compound 654] | – | – | – | – | – | – | IC50 (HCV replicon 1AY93H; [8]): 0.0095 nM; IC50 (HCV replicon 1A; [1]): 0.0011 nM; IC50 (HCV replicon 2B; [9]): 0.0061 nM; IC50 (HCV replicon 1AQ30D; [2]): 0.0839 nM; IC50 (HCV replicon 1B; [3]): 0.002 nM |
| COC(=O)NC(C(=O)N1CCC[C@H]1c1ncc(-c2ccc3c(c2)cc2n3C(c3ccc(C4CCCC4)s3)Oc3cc(-c4cnc([C@@H]5CCCN5C(=O)[C@@H](NC(=O)OC)C(C)C)[nH]4)cc(F)c3-2)[nH]1)C1C[C@@H](C)O[C@@H](C)C1 (single isomer, unassigned) [Compound 656] | – | – | – | – | – | – | IC50 (HCV replicon 1AY93H; [8]): 0.0025 nM; IC50 (HCV replicon 1A; HCV replicon 1A): 0.0015 nM; IC50 (HCV replicon 2B; [9]): 0.0026 nM; IC50 (HCV replicon 1AQ30D; read-out: 1A Q30D IC50, HCV replicon 1A Q30D): 0.0481 nM; IC50 (HCV replicon 1B; HCV replicon 1B): 0.0028 nM |
| COC(=O)N[C@H](C(=O)N1CCC[C@H]1c1ncc(-c2ccc3c(c2)OC(c2ccc(C4CC4)s2)n2c-3cc3cc(-c4cnc([C@@H]5CCCN5C(=O)[C@@H](NC(=O)OC)C(C)C)[nH]4)ccc32)[nH]1)C(C)C (some centres unmarked) [Compound 2] | – | – | – | 0.1 nM | 0.0024 nM | 0.0029 nM | IC50 (HCV replicon 1AY93H; [6]): 0.032 nM; IC50 (HCV replicon 2B; [7]): 0.033 nM |
| COC(=O)N[C@H](C(=O)N1CCC[C@H]1c1ncc(-c2cc(F)c3c(c2)OC(c2ccc(C4CC4)s2)n2c-3cc3cc(-c4cnc([C@@H]5CCCN5C(=O)[C@@H](NC(=O)OC)C5CCOCC5)[nH]4)ccc32)[nH]1)C1CCOCC1 (single isomer, unassigned) [Compound 279] | 0.21 nM | – | 0.017 nM | – | 0.0029 nM | 0.0023 nM | IC50 (HCV replicon 1AQ30D; read-out: 1A Q30D IC50, replicon 1AQ30D): 0.92 nM |
| CCc1ccc(C2Oc3cc(-c4cnc(C5CCCN5C(=O)C(NC(=O)OC)C5C[C@@H](C)O[C@@H](C)C5)[nH]4)ccc3-c3cc4c(F)c(-c5cnc([C@@H]6CCCN6C(=O)[C@@H](NC(=O)OC)C(C)C)[nH]5)ccc4n32)s1 (single isomer, unassigned) [Compound 359] | 0.0826 nM | 0.0036 nM | 0.0519 nM | 0.848 nM | 0.0019 nM | – | – |
| COC(=O)NC(C(=O)N1CCC[C@H]1c1ncc(-c2ccc3c(c2)cc2n3C(c3ccc(C(F)(F)F)s3)Oc3cc(-c4cnc([C@@H]5CCCN5C(=O)[C@@H](NC(=O)OC)C(C)C)[nH]4)cc(F)c3-2)[nH]1)C1C[C@@H](C)O[C@@H](C)C1 (single isomer, unassigned) [Compound 649] | – | – | – | – | – | – | IC50 (HCV replicon 1AY93H; HCV replicon 1A Y93H, read-out: 1A Y93H IC50): 0.24 nM; IC50 (HCV replicon 1A; HCV replicon 1A): 0.002 nM; IC50 (HCV replicon 2B; HCV replicon 2B, read-out: 2B IC50): 0.253 nM; IC50 (HCV replicon 1AQ30D; HCV replicon 1A Q30D, read-out: 1A Q30D IC50): 0.41 nM; IC50 (HCV replicon 1B; HCV replicon 1B): 0.0012 nM |
